Data published in patent publication US20100029615A1, “BENZIMIDAZOLE DERIVATIVES” (priority 2006, published 2010).
Structures can show the parent of a compound that is named as a salt.

Molecular target: T1, SMO (Mus musculus, UniProt P56726)
T1 construct: endogenous in cells; host or cells: C3H10T1/2 (ATCC #CCL-226)
Assay: Smoothened (SMO)/Sonic Hedgehog (SHh) Transient Transcriptional Activation Assay (Gli-luciferase reporter in C3H10T1/2 cells)
Type: cell-based, murine
Details: 2 uM test compound, SHh 250 ng/ml, 20 hrs
Method in brief: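 C3H10T1/2 cells transiently transfected with a 10× murine Gli-responsive firefly luciferase reporter plus pEGFP, serum-starved 20 h in 0.5% calf serum, then treated with compounds (2 uM–2 nM final) and 250 ng/ml recombinant human SHh for 20 h at 37 °C. Read-out: Dual-Glo luminescence.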

T1 sequence (P56726 33-793): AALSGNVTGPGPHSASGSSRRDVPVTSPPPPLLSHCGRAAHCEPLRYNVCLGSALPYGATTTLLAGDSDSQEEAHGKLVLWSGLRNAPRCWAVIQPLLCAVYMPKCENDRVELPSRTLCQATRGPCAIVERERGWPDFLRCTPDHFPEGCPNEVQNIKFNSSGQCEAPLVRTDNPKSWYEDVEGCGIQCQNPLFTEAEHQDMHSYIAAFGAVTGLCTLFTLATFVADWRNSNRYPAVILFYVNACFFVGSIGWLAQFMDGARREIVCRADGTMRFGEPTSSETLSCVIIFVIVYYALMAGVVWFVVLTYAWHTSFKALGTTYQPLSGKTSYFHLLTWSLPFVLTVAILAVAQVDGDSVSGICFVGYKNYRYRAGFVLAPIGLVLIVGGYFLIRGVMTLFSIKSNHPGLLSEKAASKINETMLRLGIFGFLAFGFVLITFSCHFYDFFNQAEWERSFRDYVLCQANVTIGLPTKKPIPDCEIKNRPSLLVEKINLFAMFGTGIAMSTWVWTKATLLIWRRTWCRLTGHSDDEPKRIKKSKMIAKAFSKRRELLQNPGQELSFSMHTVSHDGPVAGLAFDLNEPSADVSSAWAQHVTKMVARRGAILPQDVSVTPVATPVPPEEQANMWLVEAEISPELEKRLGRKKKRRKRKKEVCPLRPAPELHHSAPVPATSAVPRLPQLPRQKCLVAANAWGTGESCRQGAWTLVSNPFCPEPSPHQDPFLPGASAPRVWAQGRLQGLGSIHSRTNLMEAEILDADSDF

Row | SMO % inhibition at 2 uM [%] | Molecule
1 | 96 | N-(3-(6-((Dimethylamino)methyl]-1-methyl-1H-benzo[d]imidazol-2-yl)cyclohexyl)-2,3-dihydrobenzo[b][1,4]dioxine-6-carboxamide and N-(3-(5-((Dimethylamino)methyl]-1-methyl-1H-benzo[d]imidazol-2-yl)cyclohexyl)-2,3-dihydrobenzo[b][1,4]dioxine-6-carboxamide [Example 34]

Same assay, conditions: 2 μM test compound, SHh 250 ng/ml, 20 hrs

Row | SMO CELL % INHIBITION @ 2 μM [%] | Molecule
2 | 110 | O=C(NC1CCCC(c2nc3ccccc3[nH]2)C1)c1ccc2cc[nH]c2c1 (stereo not shown) [Example 141, N-[3-(1H-benzimidazol-2-yl)cyclohexyl]-1H-indole-6-carboxamide triflouroacetate]

Same assay, conditions: C3H 10T1/2, 2 uM test compound, SHh 250 ng/ml, 20 hrs, read-out: SMO % inhibition at 2 uM

Row | inhibition at 2 µM [%] | Molecule
3 | 107 | CN(C)Cc1ccc2nc([C@H]3CCC[C@@H](NC(=O)c4ccc5c(c4)OCCO5)C3)[nH]c2c1 [Example 44, N-((1R,3S)-3-(5-((Dimethylamino)methyl)-1H-benzo[d]imidazol-2-yl)cyclohexyl)-2,3-dihydrobenzo[b][1,4]dioxine-6-carboxamide]
4 | 105 | COc1cc(OC)cc(C(=O)NC2CCCC(c3nc4ccc(C(F)(F)F)cc4[nH]3)C2)c1 (stereo not shown) [Example 24, 3,5-Dimethoxy-N-(3-(6-(trifluoromethyl)-1H-benzo[d]imidazol-2-yl]cyclohexyl)benzamide]

Same assay, conditions: C3H 10T1/2, 2 μM test compound, SHh 250 ng/ml, 20 hrs, read-out: SMO CELL % INHIBITION @ 2 μM

Row | inhibition at 2 µM [%] | Molecule
5 | 111 | O=C1CCc2cc(C(=O)N[C@@H]3CCC[C@H](c4nc5cc(C(F)(F)F)ccc5[nH]4)C3)ccc2N1 [Example 285, 2-oxo-N-{(1R,3S)-3-[5-(trifluoromethyl)-1H-benzimidazol-2-yl]cyclohexyl}-1,2,3,4-tetrahydroquino-line-6-carboxamide HCl]
6 | 81 | COc1cc(OC)cc(C(=O)NC23CCCC(c4nc5ccccc5[nH]4)(C2)C3)c1 [Example 100, N-[5-(1H-benzimidazol-2-yl)bicyclo[3.1.1]hept-1-yl]-3,5-dimethoxybenz-amide]
7 | 91 | COc1ccc2[nH]c([C@H]3CCC[C@H](NC(=O)c4ccc5c(c4)OCCO5)C3)nc2c1 [Example 254, N-(3-(5-methoxy-1H-benzo[d]imidaz-ol-2-yl)cyclohexyl)-2,3-dihydrobenzo[b] [1,4]dioxine-6-carboxamide HCl]
8 | 103 | O=C(N[C@@H]1CCC[C@H](c2nc3cc(Br)ccc3[nH]2)C1)c1ccc2c(c1)OCCO2 [Example 149, N-[(1R,3S)-3-(5-bromo-1H-benzimidazol-2-yl)cyclohexyl]-2,3-dihydro-1,4-benzodioxine-6-carboxamide HCl]
9 | 112 | CN1C(=O)COc2ccc(C(=O)N[C@@H]3CCC[C@H](c4nc5cc(C(F)(F)F)ccc5[nH]4)C3)cc21 [Example 280, 4-methyl-3-oxo-N-{(1R,3S)-3-[5-(trifluoromethyl)-1H-benzimidazol-2-yl]cyclohexyl}-3,4-dihydro-2H-1,4-benzoxazine-6-carboxamide HCl]
10 | 46 | COc1cc(OC)cc(C(=O)N[C@H]2CCC[C@H](c3nc4ccccc4[nH]3)C2)c1 [Example 252, N-(3-(1H-benzo[d]imidaz-ol-2-yl)cyclohexyl)-3,5-dimethoxybenz-amide HCl]
11 | 97.1 | [N-]=[N+]=Nc1c(F)c(F)c(C(=O)NC23CCCC(c4nc5cc(C(F)(F)F)ccc5[nH]4)(C2)C3)c(F)c1F [Example 302, 4-azido-2,3,5,6-tetrafluoro-N-{5-[5-(trifluoromethyl)-1H-benzimidazol-2-yl]bicyclo[3.1.1]hept-1-yl}benzamide]
12 | 103 | N#Cc1cccc(NC(=O)N[C@@H]2CCC[C@H](c3nc4ccccc4[nH]3)C2)c1 [Example 231, 1-[(1R,3S)-3-(1H-benzimidazol-2-yl)cyclohexyl] 3-(3-cyanophenyl)-urea]
13 | 95.5 | COc1cc(OC)cc(C(=O)NC23CCCC(c4nc5cc(C(F)(F)F)ccc5[nH]4)(C2)C3)c1 [Example 259, 3,5-dimethoxy-N-{5-[5-(trifluoromethyl)-1H-benzimidazol-2-yl)bicyclo[3.1.1]hept-1-yl}benzamide]
14 | 94.9 | Cc1nn(C)c2sc(C(=O)N[C@@H]3CCC[C@H](c4nc5cc(C(F)(F)F)ccc5[nH]4)C3)cc12 [Example 284, 1,3-dimethyl-N-{(1R,3S)-3-[5-(trifluoromethyl)-1H-benzimidazol-2-yl]cyclohexyl}-1H-thieno[2,3-c]pyrazole-5-carboxamide HCl]
15 | 93.3 | O=C(NC12CCCC(c3nc4cc(C(F)(F)F)ccc4[nH]3)(C1)C2)c1c(F)c(F)c(F)c(F)c1F [Example 288, 2,3,4,5,6-pentafluoro-N-{5-[5-(trifluoromethyl)-1H-benzimidazol-2-yl]bicyclo[3.1.1]hept-1-yl}benzamide]
16 | 70 | O=C(NCCCCl)N[C@@H]1CCC[C@H](c2nc3ccccc3[nH]2)C1 [Example 225, 1-((1R,3S)-3-(1H-benzo[d]imidaz-ol-2-yl)cyclohexyl)-3-(3-chloropropyl)-urea]
17 | 102 | O=C(NC1CCCC(c2nc3ccc(Br)cc3[nH]2)C1)c1ccc2c(c1)OCCO2 (stereo not shown) [Example 86, N-[3-(6-bromo-1H-benzimidazol-2-yl)cyclohexyl]-2,3-dihydro-1,4-benzodioxine-6-carboxamide HCl]
18 | 102 | O=C(N[C@@H]1CCC[C@H](c2nc3ccccc3[nH]2)C1)c1ccc2c(c1)CCNC2 [Example 309, N-[(1R,3S)-3-(1H-benzimidazol-2-yl)cyclohexyl]-1,2,3,4-tetrahydroiso-quinoline-6-carboxamide HCl]
19 | 63 | O=C(NC1CCCC1)N[C@@H]1CCC[C@H](c2nc3ccccc3[nH]2)C1 [Example 226, 1-((1R,3S)-3-(1H-benzo[d]imidaz-ol-2-yl)cyclohexyl)-3-cyclopentylurea]
20 | 102 | CN(C)c1ccc2nc(C3CCCC(NC(=O)c4ccc5c(c4)OCCO5)C3)[nH]c2c1 (stereo not shown) [Example 77, N-{3-[6-(dimethylamino)-1H-benzimidazol-2-yl]cyclohexyl}-2,3-dihydro-1,4-benzodioxine-6-carboxamide HCl]
21 | 70 | Cc1cc(C)n(CCC(=O)NC2CCCC(c3nc4ccccc4[nH]3)C2)n1 (stereo not shown) [Example 120, N-[3-(1H-benzimidazol-2-yl)cyclohexyl]-3-(3,5-dimethyl-1H-pyrazol-1-yl)propanamide triflouroacetate]
22 | 54 | O=C(N[C@@H]1CCC[C@H](c2nc3ccccc3[nH]2)C1)c1c[nH]c2ccccc12 [Example 205, N-[(1R,3S)-3-(1H-benzimidazol-2-yl)cyclohexyl]-1H-indole-3-carboxamide triflouroacetate]
